Measurements published in US7084239B1, “Cancer peptides of NY-ESO-1/CAG-3” (The United States of America as represented by the …, priority 1997, dated 2006).
Entries after “also recorded” stand apart in the source; their conditions may differ.

Experiments:
CTL clone 5 [1] = test: GM-CSF release by CTL clone 5 on peptide-pulsed EBV B cells; assay type: cell-based, human
Procedure: DNA transfection and GM-CSF assay were done as previously described (Wang, R. F., P. F. Robbins, Y. Kawakami, X. Q. Kang, and S. A. Rosenberg, 1995, J. Exp. Med. 181:799–804). Briefly, […] of DNA carrying a different fragment and 50 ng of the HLA-A31 DNA were mixed with 2 μl of lipofectamine in 100 μl of serum-free DMEM for 15–45 min. The DNA/lipofectamine mixture was then added to the COS-7 (5×10^4) cells and incubated overnight. The following day, cells were washed twice with DMEM medium. TIL586, CTL clone 5 or CTL clone 10 were added at a concentration of 5×10^4 cells/well in AIM-V medium containing 120 IU/ml of IL-2. After 18–24 h incubation, 100 μl of supernatant was collected and GM-CSF was measured in a standard ELISA assay (R+D Systems, Minneapolis, Minn.). For peptides, 586EBV, 1510EBV and T2 cells were incubated with peptides at 37° C. for 90 min, and then washed three times with AIM-V medium containing 120 IU/ml of IL-2. T cells were added and incubated for additional 18–24 h, 100 μl of supernatant was collected for GM-CSF assay. In some experiments, IFN-γ release assays were done using a standard ELISA kit (Endogen, Woburn, Mass.).
These peptides were pulsed onto HLA-A31-positive 1510EBV B cells and tested for their ability to stimulate cytokine release by CTL clone 5. […] CTL clone 10 recognized the same peptide as CTL clone 5 (data not shown). […] The reactivity of CTL clone 5 was undetectable when either the ESO9-54 or the ESO10-127 peptides were used at concentrations below 100 nM to sensitize EBV cells.

CTL clone 5 [2] = test: Chromium release cytolysis of peptide-pulsed target cells by CTL clone 5; assay type: cell-based, human
Procedure: FIGS. 5A–5C. Characterization of the 9-mer ESO9-54 and 10-mer ESO10-53 derived from the normal open reading frame. FIG. 5A. 586EBV or 1510EBV B cells were pulsed with ESO10-53 and ESO9-54 peptides at different concentrations for 120 min. After two washes with AIM-V medium with 120 IU IL-2, CTL clone 5 (1×10^5/well) was added and incubated for 18 to 24 h. GM-CSF release by CTL clone 5 was determined by ELISA. FIG. 5B. 586mel cells were lysed by CTL clone 5, but 397mel cells were not lysed by CTL clone 5 at different E:T ratios. FIG. 5C. 586EBV and 1510EBV B cells were labeled with chromium overnight. The ESO10-53 peptide was then pulsed on the chromium-labeled 586EBV, 1510EBV, and T2 cells for 120 min. An irrelevant peptide containing an HLA-A31 peptide-binding motif was also pulsed on chromium-labeled 586EBV, 1510EBV B cells as negative controls. After peptide incubation and two washes, cytolysis of target cells by CTL clone 5 was determined in a 4-h chromium release assay. T2 pulsed with the ESO10-53 peptide was used for the specificity control.
Cytolytic assay was done as previously described (Kawakami, Y et al., 1994, Proc. Natl. Acad. Sci. USA 91:6458–62). Briefly, the target cells were labeled with chromium for 90 min. After washing three times, the cells were incubated with peptides at a concentration of 1 μg/ml for 90 min. The cells were washed again, counted, and then mixed with TIL586 or CTL clone 5 at the indicated ratio of effector: targets (E:T). Chromium release was measured after 4 h incubation. The peptides were synthesized by a solid-phase method using a peptide synthesizer (Model AMS 422, Gilson Co., Inc., Worthington, Ohio). Some peptides were purified by HPLC and had greater than 98% in purity. […] Percentage of specific lysis was determined from the equation (A−B)/(C−B)×100 where A is lysis of 586EBV B cells by TIL586 or clone 5 in the presence of a peptide, B is spontaneous release from 586EBV B cells in presence of the same peptide but in the absence of effector cells, and C is the maximum chromium release. […]

## ASGPGGGAPR (listed as Homo sapiens) [ESO10-53]
CTL clone 5 [1]; 586EBV cells, peptide 0.1 μg/ml for 90 min, 5 × 10^4 CTL clone 5
  GM-CSF release by CTL clone 5, EXPT. 2 (586EBV): 1044 (SEQ. ID NO: 25)
CTL clone 5 [1]; 1510EBV cells incubated with peptide at 0.1 μg/ml for 90 min
  CTL clone 5 GM-CSF release: >2000 (SEQ. ID NO: 25) pg/ml
CTL clone 5 [1]; 1510EBV cells, peptide 0.1 μg/ml for 90 min, 5 × 10^4 CTL clone 5
  GM-CSF release by CTL clone 5, EXPT. 1 (1510EBV): 1097
CTL clone 5 [1]; at 10 μM peptide concentration (FIG. 5A)
  Plateau of GM-CSF release from CTL clone 5 in peptide titration: no plateau was reached
CTL clone 5 [1]; peptide pulsed onto HLA-A31-positive 1510EBV or 586EBV B cells
  Recognition by CTL clone 5 (cytokine release), in words: strongly recognized; also recorded: recognized
CTL clone 5 [1]; peptide titration on EBV B cells, GM-CSF release
  Peptide concentration at which CTL clone 5 reactivity is detectable: ≤ 10 nM
CTL clone 5 [2]; E:T ratio of 2.5:1, 4-h chromium release
  Lysis of peptide-incubated 586EBV or 1510EBV by CTL clone 5: 5–10%
CTL clone 5 [2]; E:T ratio of 40:1, 4-h chromium release
  Lysis of peptide-incubated 586EBV or 1510EBV by CTL clone 5: > 60%
CTL clone 5 [2]; T2 cells, specificity control (FIG. 5C)
  Lysis of HLA-A31-negative T2 cells pulsed with peptide by CTL clone 5: nor did it lyse
